Laboratory results taken from patent US9624243B2, “Heterocyclic compounds and methods of their use” (Novartis AG, priority 2012, dated 2017).

Molecular target: AT2 receptor (Homo sapiens (Human), UniProt P50052)
Assay: AT2 Receptor Binding
Settings: HEK293 AT2 receptor transient cell membranes, [125I]-CGP42112A
Description: 1. Trypsin-EDTA (for Preparation of 100 mL)
• Dissolve trypsin in 2% EDTA and PBS completely; sterilize the solution by passing through a […] membrane filter; store at 4° C.
2. DMEM Medium (for Preparation of 1 L) • The powder was dissolved into 950 mL of distilled water with gentle stirring until the solution becomes clear. • Add. NaHCO3 1.176 g for DMEM medium. • Adjust pH of medium to 0.2˜0.3 below final working pH using 1 M NaOH or 1 M • HCl. Add slowly with stirring. • Dilute to 1 liter with ddH2O. • Sterilize the medium immediately by filtration. • Store at 4° C.
3. TE Buffer • 20 mM Tris-HCl, pH 7.4, • 5 mM EDTA
4. Binding Assay Buffer • 50 mM Hepes, pH 7.4 • 5 mM MgCl2 • 1 mM CaCl2 • 0.2% BSA
5. Wash Buffer • 50 mM Hepes, pH 7.4 Procedures for HEK293AT2 Receptor Transient Cell Transfection • Cells were plated into 150 mm dish at 50% density for transient transfection. Cells were ready for transfection after overnight incubation (the confluence reaches around 80%). • 75 μL Lipofectamine™2000 diluted in 6.25 mL OptiMEM I Reduced Serum Medium, was mixed gently, and incubated at room temperature for 5 minutes. 50 μg expression plasmid DNA diluted in 6.25 mL OptiMEM I Reduced Serum Medium without serum was mixed gently. • After the 5 minute incubation, the diluted DNA was combined with the diluted Lipofectamine™2000 (total volume is 12.5 mL). The mixture was mixed gently and incubated for 30 minutes at room temperature to allow the DNA-Lipofectamine™2000 complexes to form. • The 12.5 mL DNA-Lipofectamine™2000 complexes were added into the 150 mm dish and mixed gently by rocking the dish back and forth. • The cells were incubated at 37° C. with 5% CO2 for 48 hours. Cells were collected and stored frozen at −80° C. Procedures for HEK293AT2 Receptor Cell Membrane Preparation • Frozen HEK293AT2 receptor (transient transfected) cells were homogenized in ice cold TE buffer for 10s. • The homogenate was centrifuged at 25,000 g for 30 minutes. • The pellet was resuspended in ice cold tissue buffer. • Protein concentrations were determined using Bradford assay method with BSA as standard. • The membrane protein was frozen under −80° C. Compound Preparation
Solutions of all compounds were prepared bymicroplate liquid handling equipment such as Janus or Precision 2000. Compounds, dissolved in DMSO were stored in a Freezer. Compounds were prepared from 30 mM in 100% DMSO.
Step 1: Dose Plate Preparation (96 Well Plate)
• Add the 3 μL [30 mM] compound stock to column 1 on the plate. • Add 15 μL of 100% DMSO to column 1. • Add 10.81 μL of 100% DMSO to column 2-12. • Transfer 5 μL from column 1 into column 2 (half log dilution). • Transfer 5 μL from column 2 into column 3 (half log dilution). • Transfer 5 μL from column 3 into column 4 (half log dilution). • Transfer 5 μL from column 4 into column 5 (half log dilution). • Transfer 5 μL from column 5 into column 6 (half log dilution). • Transfer 5 μL from column 6 into column 7 (half log dilution). • Transfer 5 μL from column 7 into column 8 (half log dilution). • Transfer 5 μL from column 8 into column 9 (half log dilution). • Transfer 5 μL from column 9 into column 10 (half log dilution) • Transfer 5 μL from column 10 into column 11 (half log dilution) • Transfer 5 μL from column 11 into column 12 (half log dilution).
All the compounds were diluted using Precision 2000 microplate liquid handling equipment. The top concentration of compound was 5 mM with 100% DMSO.
Step 2: Working Plate Preparation (96 Well Plate)
• Compounds were diluted 50-fold with buffer. • 49 μL buffer was added to the well of 96 well plate. • 1 μL compound solution from dose plate was transferred to the corresponding well of working plate. • The top concentration of compound was 100 μM with 2% DMSO. Step 3: Assay Plate Preparation (96 Well Plate)
15 μL of compound solution was transferred from each well of working plate to the well of assay plate by Janus.

AT2 receptor, sequence (P50052 whole entry, species assumed): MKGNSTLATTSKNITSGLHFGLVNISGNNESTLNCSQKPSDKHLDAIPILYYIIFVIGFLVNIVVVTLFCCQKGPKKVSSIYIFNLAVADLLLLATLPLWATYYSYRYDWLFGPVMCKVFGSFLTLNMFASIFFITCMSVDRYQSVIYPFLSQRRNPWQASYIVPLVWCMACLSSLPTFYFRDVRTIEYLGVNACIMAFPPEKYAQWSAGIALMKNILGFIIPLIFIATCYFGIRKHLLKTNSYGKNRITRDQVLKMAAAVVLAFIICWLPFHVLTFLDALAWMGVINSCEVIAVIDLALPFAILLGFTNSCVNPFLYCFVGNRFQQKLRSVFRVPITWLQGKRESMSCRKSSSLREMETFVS

IC50	Structure (SMILES)
1600 nM	O=C1NCC2(CCN([C@H]3C[C@@H](C(=O)O)N(C(=O)C(c4ccccc4)c4ccccc4)C3)CC2)C1c1ccccc1 (stereo partly drawn) [Compound 65, (2S,4S)-1-(2,2-diphenylacetyl)-4-(3-oxo-4-phenyl-2,8-diazaspiro[4,5]decan-8-yl)pyrrolidine-2-carboxylic acid]
3830 nM	O=C(O)[C@@H]1C[C@H](N2CCC3(CC2)C(=O)NC3c2ccccc2)CN1C(=O)C(c1ccccc1)c1ccccc1 (stereo partly drawn) [Compound 75, (2S,4S)-1-(2,2-diphenylacetyl)-4-(1-oxo-3-phenyl-2,7-diazaspiro[3,5]nonan-7-yl)pyrrolidine-2-carboxylic acid]
75.8 nM	O=C(O)[C@@H]1C[C@H](N2CCC[C@H]3CN(Cc4ccccc4)C[C@H]32)CN1C(=O)C(c1ccccc1)c1ccccc1 [Compound 84]
103 nM	O=C(O)[C@@H]1C[C@H](N2CCC[C@@H]3CN(Cc4ccccc4)C[C@@H]32)CN1C(=O)C(c1ccccc1)c1ccccc1 [Compound 85, (2S,4S)-4-((4aR,7aR)-6-benzoctahydro-1H-pyrrolo[3,4-b]-pyridin-1-yl)-1-(2,2-diphenylacetyl)pyrrolidine-2-carboxylic acid]
64.2 nM	CN(CCCCc1ccccc1)[C@H]1C[C@@H](C(=O)O)N(C(=O)C(c2ccccc2)c2ccccc2)C1 [Compound 90, (2S,4S)-1-(2,2-diphenylacetyl)-4-(methyl(4-phenylbutyl)-amino)pyrrolidine-2-carboxylic acid]
12 nM	CN(CCCc1ccc(F)cc1)[C@H]1C[C@@H](C(=O)O)N(C(=O)C(c2ccccc2)c2ccccc2)C1 [Compound 91, (2S,4S)-1-(2,2-diphenylacetyl)-4-((3-(4-fluorophenyl)-propyl)(methyl)amino)pyrrolidine-2-carboxylic acid]
134 nM	COc1ccc(CCCN(C)[C@H]2C[C@@H](C(=O)O)N(C(=O)C(c3ccccc3)c3ccccc3)C2)cc1C [Compound 92, (2S,4S)-1-(2,2-diphenylacetyl)-4-((3-(4-methoxy-3-methylphenyl)propyl)(methyl)amino)pyrrolidine-2-carboxylic acid]
126 nM	CN(CCCc1cccnc1)[C@H]1C[C@@H](C(=O)O)N(C(=O)C(c2ccccc2)c2ccccc2)C1 [Compound 93]
2250 nM	O=C(CCc1ccccc1)N[C@H]1C[C@@H](C(=O)O)N(C(=O)C(c2ccccc2)c2ccccc2)C1 [Compound 96, (2S,4S)-1-(2,2-diphenylacetyl)-4-(3-phenylpropanamido)-pyrrolidine-2-carboxylic acid]
458 nM	CN(C(=O)CCc1ccccc1)[C@H]1C[C@@H](C(=O)O)N(C(=O)C(c2ccccc2)c2ccccc2)C1 [Compound 97, (2S,4S)-1-(2,2-diphenylacetyl)-4-(N-methyl-3-phenylpropanamido)pyrrolidine-2-carboxylic acid]
536 nM	CS(=O)(=O)N(CCCc1ccccc1)[C@H]1C[C@@H](C(=O)O)N(C(=O)C(c2ccccc2)c2ccccc2)C1 [Compound 99, (2S,4S)-1-(2,2-diphenylacetyl)-4-(N-(3-phenylpropyl)-methylsulfonamido)pyrrolidine-2-carboxylic acid]
18 nM	O=C(O)[C@@H]1C[C@H](n2nncc2-c2ccccc2)CN1C(=O)C(c1ccccc1)c1ccccc1 [Compound 100, (2S,4S)-1-(2,2-diphenylacetyl)-4-(5-phenyl-1H-1,2,3-triazol-1-yl)pyrrolidine-2-carboxylic acid]
400 nM	O=C(O)[C@@H]1C[C@H](n2nncc2Cc2ccccc2)CN1C(=O)C(c1ccccc1)c1ccccc1 [Compound 101, (2S,4S)-4-(5-benzyl-1H-1,2,3-triazol-1-yl)-1-(2,2-diphenylacetyl)pyrrolidine-2-carboxylic acid]
499 nM	O=C(O)[C@@H]1C[C@H](N2C(=O)COC[C@@H]2Cc2ccccc2)CN1C(=O)C(c1ccccc1)c1ccccc1 [Compound 102, (2S,4S)-4-((S)-3-benzyl-5-oxomorpholino)-1-(2,2-diphenylacetyl)pyrrolidine-2-carboxylic acid]
1320 nM	O=C(O)[C@@H]1C[C@H](OCCCc2ccc(F)cc2)CN1C(=O)C(c1ccccc1)c1ccccc1 [Compound 104, (2S,4S)-1-(2,2-diphenylacetyl)-4-(3-(4-fluorophenyl)-propoxy)pyrrolidine-2-carboxylic acid]
2490 nM	COc1ccc(C#CCN(C)[C@H]2C[C@@H](C(=O)O)N(C(=O)C(c3ccccc3)c3ccccc3)C2)cc1C [Compound 105, (2S,4S)-1-(2,2-diphenylacetyl)-4-((3-(4-methoxy-3-methylphenyl)prop-2-yn-1-yl)(methyl)amino)pyrrolidine-2-carboxylic acid]
426 nM	O=C(O)[C@@H]1C[C@H](CCCCc2ccccc2)CN1C(=O)C(c1ccccc1)c1ccccc1 [Compound 106, (2S,4S)-1-(2,2-diphenylacetyl)-4-(4-phenylbutyl)-pyrrolidine-2-carboxylic acid]
461 nM	O=C(O)[C@@H]1C[C@H](c2sccc2-c2ccccc2)CN1C(=O)C(c1ccccc1)c1ccccc1 [Compound 107, (2S,4S)-1-(2,2-diphenylacetyl)-4-(3-phenylthiophen-2-yl)-pyrrolidine-2-carboxylic acid]
17.1 nM	CN(CCCc1ccc(F)cc1)[C@H]1C[C@@H](C(=O)NS(=O)(=O)N(C)C)N(C(=O)C(c2ccccc2)c2ccccc2)C1 [Compound 114, (2S,4S)—N—(N,N-dimethylsulfamoyl)-1-(2,2-diphenylacetyl)-4-((3-(4-fluorophenyl)propyl)(methyl)amino)pyrrolidine-2-carboxylic acid]
321 nM	O=C(O)[C@@H]1C[C@H](N2CCC3(CCOC(=O)N3Cc3ccccc3)C2)CN1C(=O)C(c1ccccc1)c1ccccc1 (stereo partly drawn) [Compound 115]
650 nM	CN(CC#Cc1ccccc1)[C@H]1C[C@@H](C(=O)O)N(C(=O)C(c2ccccc2)c2ccccc2)C1 [Compound 116, (2S,4S)1-(2,2-diphenylacetyl)-4-(methyl(3-phenylprop-2-yn-1-yl)amino)pyrrolidine-2-carboxylic acid]
314 nM	O=C(O)[C@@H]1C[C@H](CS(=O)(=O)Cc2ccccc2)CN1C(=O)C(c1ccccc1)c1ccccc1 [Compound 118, (2S,4S)-4-((benzylsulfonyl)methyl)-1-(diphenylacetyl)-pyrrolidine-2-carboxylic acid]
2650 nM	O=C(O)[C@@H]1C[C@H](CS(=O)(=O)c2ccccc2)CN1C(=O)C(c1ccccc1)c1ccccc1 [Compound 119, (2S,4S)-4-((phenylsulfonyl)methyl)-1-(diphenylacetyl)-pyrrolidine-2-carboxylic acid]
1200 nM	O=C(O)[C@@H]1C[C@H](CSCCc2ccccc2)CN1C(=O)C(c1ccccc1)c1ccccc1 [Compound 120, (2S,4S)-1-(2,2-diphenylacetyl)-4-((phenethylthio)methyl)pyrrolidine-2-carboxylic acid]

Structure (SMILES)	IC50
O=C(O)[C@@H]1C[C@H](N2CC[C@@H](c3ccccc3)C2)CN1C(=O)C(c1ccccc1)c1ccccc1 [Compound 86]	817 nM
O=C(O)[C@@H]1C[C@H](N2CC[C@H](c3ccccc3)C2)CN1C(=O)C(c1ccccc1)c1ccccc1 [Compound 87]	43.6 nM
CN(C)S(=O)(=O)NC(=O)[C@@H]1C[C@H](OCCCc2ccccc2)CN1C(=O)C(c1ccccc1)c1ccccc1 [Compound 112, (2S,4S)—N—(N,N-dimethylsulfamoyl)-1-(2,2-diphenylacetyl)-4-(3-phenylpropoxy)pyrrolidine-2-carboxamide]	255 nM
